Experimental findings from patent US9127016B2, “Small molecule inhibitors of Dusp6 and uses therefor” (University of Pittsburgh—Of the Commonwealth System of …, priority 2009, dated 2015) are described below.

The target in one test is T1, Cdc25B (Homo sapiens, UniProt P30305).
T1 sequence (P30305 1-580): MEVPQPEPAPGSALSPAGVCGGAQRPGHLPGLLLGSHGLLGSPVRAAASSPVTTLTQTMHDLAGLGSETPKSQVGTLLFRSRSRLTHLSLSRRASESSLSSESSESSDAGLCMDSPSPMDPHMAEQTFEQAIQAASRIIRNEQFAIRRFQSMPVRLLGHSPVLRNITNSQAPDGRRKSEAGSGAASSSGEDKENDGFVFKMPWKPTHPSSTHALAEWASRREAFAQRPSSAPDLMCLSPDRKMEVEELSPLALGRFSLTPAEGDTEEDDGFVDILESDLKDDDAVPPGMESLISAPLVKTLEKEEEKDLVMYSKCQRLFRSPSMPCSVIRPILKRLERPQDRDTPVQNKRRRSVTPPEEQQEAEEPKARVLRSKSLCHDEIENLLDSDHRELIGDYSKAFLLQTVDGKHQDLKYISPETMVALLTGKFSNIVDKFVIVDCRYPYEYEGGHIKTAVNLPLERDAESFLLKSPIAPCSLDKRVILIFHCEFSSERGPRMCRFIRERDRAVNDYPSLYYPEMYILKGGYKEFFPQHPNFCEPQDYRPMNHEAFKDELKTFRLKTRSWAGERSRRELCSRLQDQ
Put plainly: OMFP phosphatase assay, Cdc25B. The format is biochemical. Conditions: n=3, OMFP substrate, 15.2 nM-300 μM; read-out: mean in vitro values, Cdc25B. How it is done: Enzyme activities in the presence or absence of BCI were measured using the artificial substrate […] at concentrations equal to the Km of each enzyme (Cdc25B, PTP1B & Dusp3/VHR) and at optimal pH for individual enzyme activity in a 96-well microtiter plate assay based on previously described methods by Lazo et al. (J Med Chem 44, 4042-9 (2001) and Lazo, J. S. et al. Bioorg Med Chem 14, 5643-50 (2006)). Briefly, the standard assay conditions contained 0.02 mg/ml OMFP in assay buffer (30 mM Tris-HCl (pH8.0), 75 mM NaCl, 1 mM EDTA, 0.33% BSA and 1 mM DTT). Fluorescence emission was measured after a sixty-minute incubation period at ambient temperature using a multiwell plate reader (SpectraMax m5, […]; excitation 485 nm, emission 525 nm). Sodium orthovanadate (100 μM) was used as a positive control for full phosphatase inhibition. IC50 concentrations were determined from three experiments using 10 concentrations of BCI ranging from 300 μM to 15.2 nM and GraphPad Prism 5.0 software.

A further test deals with T2, ERK2-stimulated Dusp6 (Homo sapiens, UniProt Q16828).
T2 construct: His; made in house
T2 sequence (Q16828 whole entry): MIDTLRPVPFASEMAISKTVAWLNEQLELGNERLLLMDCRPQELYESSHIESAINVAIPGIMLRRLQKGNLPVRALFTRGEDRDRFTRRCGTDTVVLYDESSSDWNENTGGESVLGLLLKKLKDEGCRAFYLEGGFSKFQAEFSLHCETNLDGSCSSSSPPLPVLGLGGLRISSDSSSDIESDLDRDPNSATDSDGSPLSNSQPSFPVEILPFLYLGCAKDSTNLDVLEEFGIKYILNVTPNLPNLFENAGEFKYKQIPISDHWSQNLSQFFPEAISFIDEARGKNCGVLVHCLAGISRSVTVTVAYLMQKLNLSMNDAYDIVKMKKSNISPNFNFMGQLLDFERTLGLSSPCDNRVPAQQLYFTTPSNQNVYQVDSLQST
T2 sequence (P28482 whole entry partner): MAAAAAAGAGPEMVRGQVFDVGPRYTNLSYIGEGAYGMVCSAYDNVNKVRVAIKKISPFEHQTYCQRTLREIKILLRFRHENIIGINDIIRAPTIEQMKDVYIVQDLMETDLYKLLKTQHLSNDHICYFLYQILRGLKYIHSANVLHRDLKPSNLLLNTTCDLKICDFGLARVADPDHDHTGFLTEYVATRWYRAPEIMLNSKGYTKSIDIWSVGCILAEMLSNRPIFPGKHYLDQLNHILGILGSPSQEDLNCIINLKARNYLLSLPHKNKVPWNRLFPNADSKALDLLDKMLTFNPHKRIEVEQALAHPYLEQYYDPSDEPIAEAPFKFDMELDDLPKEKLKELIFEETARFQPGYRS
The test is described as follows: ERK2-induced activation of Dusp6, OMFP dephosphorylation. Conditions: BCI 100 μM. The format is biochemical. Here is the method: For OMFP based ERK2 induced activation of Dusp6, recombinant His-tagged Dusp6 was expressed from a bacterial expression vector and 250 ng were incubated with the indicated concentrations of NSC95397 or BCI. OMFP was added at its apparent Km (100 μM) (Vogt, A. et al. J Biol Chem 280, 19078-86 (2005)). The final reaction volume was 15 μl. After 1 h at RT, OMF fluorescence was measured on an M5 multimode reader (Molecular Devices) at excitation/emission wavelengths of 485/525 nm. To assay activated Dusp6, 210 ng or 2.1 μg of recombinant ERK2 (Cell signaling) were added to Dusp6(210 ng)/BCI(100 μM) mixtures to measure activation at 1:1 and 1:10 ratio of substrate to enzyme. OMFP was immediately added and fluorescence (ex485/em525 nm) was read every 10 min for 130 min. Fold activation was calculated at 60 mins in each experiment.

For test [1], the system named is FGF signaling (d2EGFP reporter). The test is described as follows: BCI analog SAR: d2EGFP intensity in transgenic zebrafish embryos by densitometry. It is filed as in vivo. To be noted: 20 μM, 24 hpf embryos, 6 h; for Activity (BCI = 100): d2EGFP intensity in the dorsal region. How it is done:
Transgenic zebrafish embryos (24 hpf) were treated with 20 μM solution of BCI analogs in 0.5% aq DMSO and fluorescence photomicrographs were taken after 6 h. The effectiveness of BCI analogs was evaluated by densitometry (ImageJ) of d2EGFP intensity in the dorsal region.

The test system of test [2] is FGF signaling (Tg(Dusp6:d2EGFP)pt6 reporter). The test is described as follows: Transgenic zebrafish chemical screen, d2EGFP fluorescence. It is filed as in vivo. To be noted: for d2EGFP fluorescence in treated transgenic embryos: 24 hpf embryos, 6-8 hours, analogs even at four-fold higher concentrations. Here is the method: Tg(dusp6:d2EGFP)pt6 embryos were obtained by natural crossings and incubated at 28.5° C. until they reached 24 hpf. Five transgenic embryos were placed into each well from a 96-well plate in 200 μl of E3, and a 0.5% DMSO solution was added along with compound from each library at 10 μM. The NCI diversity set (NCl/NIH), the Natural Products library (MicroSource Discovery Systems Inc.) and Phosphatase targeted set (Chembridge) were screened in this study. (E)-2-Benzylidene-3-(cyclohexylamino)-2,3-dihydro-1H-inden-1-one (BCI; also known as NSC150117) was identified as a compound that enhanced fluorescence in treated transgenic embryos. Treated embryos were photographed under the same settings for exposure, gain and magnification for each picture using a MZFLIII (Leica) microscrope and fluorescent illumination for GFP using endow cube (Chroma Technology Corp., Rockingham, Vt.). Qimaging software and the Retiga Exi camera (Qimaging, Burnaby, BC Canada) were used to capture the images.
We previously described the generation of a transgenic zebrafish line, (Tg(Dusp6:d2EGFP)pt6) that expresses destabilized green fluorescent protein (d2EGFP) under the control of FGF signaling (Molina, G. A., et al. BMC Dev Biol 7, 62 (2007)). Using Tg(Dusp6:d2EGFP) embryos as a biosensor for FGF signaling, we screened over 5000 diverse compounds assembled from chemical libraries for small molecule modulators of this pathway. Five transgenic embryos at 24 hours post fertilization (hpf) were arrayed into each well of a 96-well plate containing test compounds at 10 μM. d2EGFP intensity in treated embryos was visually analyzed and compared to vehicle control (0.5% DMSO) after 6-8 hours. […] To confirm that BCI hyperactivated FGF signaling, we treated embryos prior to gastrulation (5 hpf), and we analyzed by whole mount in situ hybridization, the expression of ntl (zebrafish brachyury), a known FGF target gene (Latinkic, B. V. et al. Genes Dev 11, 3265-76 (1997)). […] We next determined the BCI structural features required to enhance FGF signaling. Two analogs, (E)-2-benzylidene-2,3-dihydro-1H-inden-1-one (BI) lacking the cyclohexylamino group, and 3-(cyclohexylamino)-2,3-dihydro-1H-inden-1-one (ICD) lacking the benzylidene group were synthesized).

SMILES strings stand for the structures.

Turning to `O=C1/C(=C/c2ccccc2)C(NC2CCCCC2)c2ccccc21` (stereo not drawn) [Compound 3, (E)-2-benzylidene-3-(cyclohexylamino)-2,3-dihydro-1H-inden-1-one], the IC50 at Cdc25B was over 300 µM. The “inhibition of ERK2-stimulated Dusp6 dephosphorylation of OMFP” value worked out at 57% at ERK2-stimulated Dusp6 (ERK2 three-fold stimulation (1:1)) and 30% on ERK2-stimulated Dusp6 (ratio of ERK2 to Dusp6 10:1, 7-fold enhancement). In addition, in test [1] (listed as 3 (BCI)), the “Activity (BCI = 100)” value was 100. In addition, the “d2EGFP fluorescence in treated transgenic embryos” value in test [2] is “enhanced d2EGFP fluorescence in a concentration-dependent manner”. Further, in test [2] (BCI 10 μM, Fgf8-deficient embryos), the “d2EGFP expression in the MHB of Tg(Dusp6:d2EGFP); ace mutant embryos” value is on record as “did not induce d2EGFP expression”.

Turning to `O=C1CC(NC2CCCCC2)c2ccccc21` (stereo not drawn) [Compound 17, 3-(Cyclohexylamino)-2,3-dihydro-1H-inden-1-one], in test [1], the “in vivo activity relative to BCI, in words” value was “inactive” and the “Activity (BCI = 100)” value is listed as 0. Besides, in test [2], the “d2EGFP fluorescence in treated transgenic embryos” value is “inactive”.
